# Laboratory results: PMC7041627, “Cucurbitacin D Overcomes Gefitinib Resistance by Blocking EGF Binding to EGFR and Inducing Cell Death in NSCLCs” (Frontiers in Oncology, 2020)
# Tests used:
# Assay in all cases: solid-phase competition binding assay with biotinylated EGF on coated receptor ECD/Fc
# EGFR = molecular target: T1, EGFR (Homo sapiens, UniProt P00533)
# T1 construct: human-EGFR ECD/Fc chimera; with EGF (biotinylated)
# ErbB3 = molecular target: T2, ErbB3 (Homo sapiens, UniProt P21860)
# T2 construct: ErbB3 ECD/Fc chimera; with EGF (biotinylated)
# T2 sequence (P21860 20-643 limits assumed): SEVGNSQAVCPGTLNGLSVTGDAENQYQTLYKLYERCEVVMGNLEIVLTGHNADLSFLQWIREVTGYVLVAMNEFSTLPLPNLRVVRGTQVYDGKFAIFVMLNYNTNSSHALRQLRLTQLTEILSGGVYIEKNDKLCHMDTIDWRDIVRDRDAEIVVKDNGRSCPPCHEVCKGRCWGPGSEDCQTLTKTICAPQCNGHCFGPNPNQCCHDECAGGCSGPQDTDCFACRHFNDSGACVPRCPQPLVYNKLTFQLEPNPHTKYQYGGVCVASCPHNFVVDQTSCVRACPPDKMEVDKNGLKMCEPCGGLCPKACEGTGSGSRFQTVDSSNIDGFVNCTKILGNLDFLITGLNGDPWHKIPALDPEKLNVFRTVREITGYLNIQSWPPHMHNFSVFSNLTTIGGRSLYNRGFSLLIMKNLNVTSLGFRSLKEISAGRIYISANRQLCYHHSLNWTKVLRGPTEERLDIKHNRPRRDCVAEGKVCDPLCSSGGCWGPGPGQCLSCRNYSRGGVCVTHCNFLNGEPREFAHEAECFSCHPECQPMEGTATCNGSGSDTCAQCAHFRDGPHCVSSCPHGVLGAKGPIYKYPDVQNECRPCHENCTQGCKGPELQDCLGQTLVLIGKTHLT
# T2 sequence (P01133 971-1023 partner): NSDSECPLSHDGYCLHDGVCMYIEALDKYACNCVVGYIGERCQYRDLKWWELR
# ErbB2 = molecular target: T3, ErbB2 (Homo sapiens, UniProt P04626)
# T3 construct: ErbB2 ECD/Fc chimera; with EGF (biotinylated)
# T3 sequence (P04626 23-652): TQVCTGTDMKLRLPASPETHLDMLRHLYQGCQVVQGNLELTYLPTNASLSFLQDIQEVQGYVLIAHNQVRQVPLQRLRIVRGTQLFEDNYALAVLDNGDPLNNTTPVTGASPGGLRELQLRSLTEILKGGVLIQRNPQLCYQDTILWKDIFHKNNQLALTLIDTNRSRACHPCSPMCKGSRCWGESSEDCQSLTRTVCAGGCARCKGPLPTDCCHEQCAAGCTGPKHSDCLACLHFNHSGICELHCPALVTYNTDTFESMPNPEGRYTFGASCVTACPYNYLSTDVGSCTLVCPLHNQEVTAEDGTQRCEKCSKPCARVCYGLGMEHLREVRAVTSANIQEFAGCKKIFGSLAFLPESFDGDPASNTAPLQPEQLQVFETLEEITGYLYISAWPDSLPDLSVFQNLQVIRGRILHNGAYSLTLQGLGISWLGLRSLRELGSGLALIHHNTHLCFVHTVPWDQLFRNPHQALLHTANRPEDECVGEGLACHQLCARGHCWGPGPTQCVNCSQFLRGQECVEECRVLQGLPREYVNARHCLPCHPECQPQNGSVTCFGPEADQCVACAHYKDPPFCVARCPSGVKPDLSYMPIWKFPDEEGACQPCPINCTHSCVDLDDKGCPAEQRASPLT
# T3 sequence (P01133 971-1023, further chain): as the sequence (P01133 971-1023 partner) above
# T1 sequence (P00533 25-645 limits assumed): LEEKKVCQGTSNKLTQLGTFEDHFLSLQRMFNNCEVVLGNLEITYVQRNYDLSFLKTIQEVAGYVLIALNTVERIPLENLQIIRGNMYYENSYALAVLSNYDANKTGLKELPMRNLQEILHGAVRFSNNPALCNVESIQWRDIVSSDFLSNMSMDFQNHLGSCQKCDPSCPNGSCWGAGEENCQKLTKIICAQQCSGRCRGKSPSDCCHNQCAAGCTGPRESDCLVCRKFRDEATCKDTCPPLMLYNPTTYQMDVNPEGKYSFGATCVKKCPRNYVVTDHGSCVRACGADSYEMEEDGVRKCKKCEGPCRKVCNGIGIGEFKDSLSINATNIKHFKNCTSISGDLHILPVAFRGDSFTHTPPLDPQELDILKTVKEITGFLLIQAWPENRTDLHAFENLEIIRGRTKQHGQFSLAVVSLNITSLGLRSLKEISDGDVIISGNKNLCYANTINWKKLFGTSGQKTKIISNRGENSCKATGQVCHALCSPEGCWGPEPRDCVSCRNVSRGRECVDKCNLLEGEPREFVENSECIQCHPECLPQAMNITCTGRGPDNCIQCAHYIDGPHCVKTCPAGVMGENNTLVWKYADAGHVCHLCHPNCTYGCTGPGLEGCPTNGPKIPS
# T1 sequence (P01133 971-1023 partner): as the sequence (P01133 971-1023 partner) above
smiles,measurement,setting,value
"CC(C)(O)/C=C/C(=O)[C@](C)(O)[C@H]1[C@H](O)C[C@@]2(C)[C@@H]3CC=C4[C@@H](C[C@H](O)C(=O)C4(C)C)[C@]3(C)C(=O)C[C@]12C [CuD, cucurbitacin D]",IC50,EGFR,4.33 nM
same,IC50,ErbB3,331 nM
same,IC50,ErbB2,11.1 nM
